Read-outs that look alike come from different tables or passages of the source. One block for each molecule: values may come before it.
Key:
gastric ulcers in rats = test: Gastrointestinal effects: induction of ulcers in rats submitted to cold stress; assay type: in vivo; conditions: rat, po; for Maximum non-Ulcerogenic dose: linear regression of dose-response
Protocol: Gastrointestinal Effects (GI): Induction of Ulcers in Rats Submitted to Cold Stress
In this assay possible ulcerogenic effects at a gastrointestinal level were determined after oral administration. […] Firstly the rats received the products under study orally at different doses. After two hours had elapsed the rats were placed in a chest freezer at −15° C. for 1 hour. Afterwards they were left for 1 hour at room temperature The animals were then sacrificed and the stomach extracted. The stomach was kept in saline solution for 15 minutes After this time the percentage of surface area with gastric ulcers was determined using a Project C.S.V. vs 1.2 image analyser for each stomach.

[1] = test system: secondary inflammation of paw (experimental arthritis); test: Anti-arthritic activity in rat (Freund adjuvant); assay type: in vivo; conditions: 10 mg/kg/day po for 11 days
Protocol: Anti-arthritic Activity in Rat
In this study the anti-arthritic activity in rat of the compound of example 3 has been studied. To do so the method described by B. J. Jaffee et al. (Agents and Actions, 1989, 27, 344-346) was followed. Firstly, the Freund adjuvant was injected (Mycobacterium butiricum suspended in soy-bean oil) through the sub-sole of the back left paw of the rats. After 14 days, when the secondary inflammation had developed in the uninjected paw, which is considered the experimental arthritis, treatment with the product under study or with the vehicle for the control group was started. The compound of example 3 was administered orally at a dose of 10 mg/kg/day for 11 days. The volume of the paw with secondary inflammation in the last days of treatment was measured. The anti-arthritic activity was calculated by comparing the average volume of the paw with secondary inflammation of the group treated with the compound of example 3 and the control group for 5 days.

[2] = test system: COX-1 (PGE2 in gastric mucus); test: Inhibition of the synthesis of prostaglandins (PGE2) in gastric mucus in rat; assay type: in vivo; conditions: for inhibition at 40 mg/kg: read-out: Inhibition of PGE2, Gastric mucus; for ED50: read-out: ED-50, Inhibition of PGE2, Gastric mucus
Protocol: (§1) Inhibition of the Synthesis of Prostaglandins in Inflammatory Exudate and Mucus Membrane in Rat
(§2) The products under study are administered orally at an initial screening dose of 40 mg/kg One hour after treatment the rats were anaesthetised and a sponge soaked in carrageenan was implanted subcutaneously in the interscapular zone. Six hours after implantation the rats were sacrificed and the interscapular sponges extracted as well as gastric mucuous. Next the PGE2 content was determined by immunoassay for each one of the samples, in the sponge exudate on the one hand and in the gastric mucus on the other.

[3] = test system: COX-2/COX-1 (PGE2 in inflammatory exudate); test: Inhibition of the synthesis of prostaglandins (PGE2) in inflammatory exudate in rat, carrageenan sponge; assay type: in vivo; conditions: for inhibition at 40 mg/kg: read-out: Inhibition of PGE2, Inflammatory exudate; for ED50: read-out: ED-50, Inhibition of PGE2, Inflammatory exudate
Protocol: as §1, §2

[4] = test system: carrageenan pre-inflamed rat paw; test: Analgesic activity against hyperalgesia by thermal stimulus of pre-inflamed rat paw; assay type: in vivo; conditions: for % Activity, analgesic activity against hyperalgesia by thermal stimulus: dose 40 mg/kg po, 2 h after treatment; for ED50: po, read-out: ED-50 of analgesic activity against hyperalgesia by thermal stimulus
Protocol: Analgesic Activity Against “Hyperalgesia” by Thermal Stimulus of Pre-inflamed Rat Paw
In this assay the analgesic activity in rat was monitored following the method described by K. Hargreaves et al. (Pain, 1988, 32, 77-78). Firstly, a suspension of carrageenan was injected into the back right paw of each rat. After two hours the products under study were administered orally at a screening dose of 40 mg/kg. Two hours after treatment a heat source was applied to the sole of each back paw of the rats and the time measured that they took to remove the paw measured. Hyperalgesia was determined by comparing the percentage of algesia of the paw injected with carrageenan to the other back paw. The analgesic activity was calculated comparing these hyperalgesia values of the groups treated with product with those of the group treated with the vehicle only.

SMILES: O=C(O)Cc1ccccc1Nc1c(Cl)cccc1Cl [Dichlophenac]
Ulcerogenic effects (in words) (gastric ulcers in rats; cold stress): exhibited ulcerogenic effects at very low doses | Maximum non-Ulcerogenic dose (gastric ulcers in rats; cold stress): 1.2 mg/kg

SMILES: Cc1ccc(C2CC(C(F)(F)F)=NN2c2ccc(S(N)(=O)=O)cc2)cc1 (centres unmarked) [Example 1, 1-(4-Aminosulphonylphenyl)-4,5-dihydro-5-(4-metylphenyl)-3-trifluoromethyl-1H-pyrazole]
melting point: 140 to 143 °C

SMILES: CC1(c2ccccc2)CC(C(F)(F)F)=NN1c1ccc(S(N)(=O)=O)cc1 (centres unmarked) [Example 2, 1-(4-Aminosulphonylphenyl)-4,5-dihydro-5-phenyl-5-methyl-3-trifluoromethyl-1H-pyrazole]
melting point: 60 to 66 °C

SMILES: NS(=O)(=O)c1ccc(N2N=C(C(F)(F)F)CC2c2ccc(F)cc2F)cc1 (centres unmarked) [Example 3, 1-(4-aminosulphonylphenyl)-5-(2,4-difluorophenyl)-4,5-dihydro-3-trifluoro methyl-1H-pyrazole]
Ulcerogenic effects (in words) (gastric ulcers in rats; in vivo): not to have ulcerogenic effects, even at very high doses | Maximum non-Ulcerogenic dose (gastric ulcers in rats; cold stress): >80 mg/kg | Inhibition of secondary inflammation (anti-arthritic activity) [1]: 71% | inhibition at 40 mg/kg ([2]; rat, dose 40 mg/kg po): 0% | ED50 ([2]; rat, po): > 40 mg/kg | inhibition at 40 mg/kg ([3]; rat, dose 40 mg/kg po): 92% | ED50 ([3]; rat, po): 36 mg/kg | % Activity, analgesic activity against hyperalgesia by thermal stimulus [4]: 100% | ED50 [4]: 0.2 mg/kg

SMILES: COC(=O)C1=NN(c2ccc(S(C)(=O)=O)cc2)C(c2ccc(C)cc2)C1 (centres unmarked) [Example 5, methyl 4,5-dihydro-5-(4-methylphenyl)-1-(4-methylsulphonylphenyl)-1H-pyrazole-3-carboxylate]
melting point: 156 to 157 °C

SMILES: Cc1ccc(C2CC(C(N)=O)=NN2c2ccc(S(N)(=O)=O)cc2)cc1 (centres unmarked) [Example 6, 1-(4-aminosulphonylphenyl)-4,5-dihydro-5-(4-methylphenyl)-1H-pyrazole-3-carboxamide]
melting point: 137 to 140 °C

SMILES: Cc1cnc(NC(=O)C2=C(O)c3ccccc3S(=O)(=O)N2C)s1 [Meloxicam]
inhibition at 40 mg/kg ([2]; Rattus norvegicus, po): 65% | inhibition at 40 mg/kg ([3]; Rattus norvegicus, po): 97%

SMILES: COc1ccc2cc(CCC(C)=O)ccc2c1 [Nabumetone]
inhibition at 40 mg/kg ([2]; rat, dose 40 mg/kg po): 0% | ED50 ([2]; rat, po): > 40 mg/kg | inhibition at 40 mg/kg ([3]; rat, dose 40 mg/kg po): 93% | ED50 ([3]; rat, po): 110 mg/kg | % Activity, analgesic activity against hyperalgesia by thermal stimulus [4]: 95% | ED50 [4]: 2.1 mg/kg

SMILES: CS(=O)(=O)Nc1ccc([N+](=O)[O-])cc1Oc1ccccc1 [Nimesulide]
% Activity, analgesic activity against hyperalgesia by thermal stimulus [4]: 97% | ED50 [4]: 1 mg/kg

SMILES: CN1C(C(=O)Nc2ccccn2)=C(O)c2ccccc2S1(=O)=O [Piroxicam]
Ulcerogenic effects (in words) (gastric ulcers in rats; in vivo): exhibited ulcerogenic effects at very low doses | Maximum non-Ulcerogenic dose (gastric ulcers in rats; cold stress): 1.7 mg/kg

Continued, values first:

melting point: 115 to 119 °C
SMILES: Cc1ccc(C2CC(C#N)=NN2c2ccc(S(C)(=O)=O)cc2)cc1 (centres unmarked) [Example 7, 3-cyano-4,5-dihydro-5-(4-methylphenyl)-1-(4-methylsulphonylphenyl)-1H-pyrazole]

melting point: 154 to 156 °C
SMILES: CC(=O)NS(=O)(=O)c1ccc(N2N=C(C(F)(F)F)CC2c2ccc(F)cc2F)cc1 (centres unmarked) [Example 8, 1-(4-acetylaminosulphonylphenyl)-5-(2,4-difluorophenyl)-4,5-dihydro-3-trifluoromethyl-1H-pyrazole]

melting point: 172 to 176 °C
SMILES: Cc1ccc(C2CC(C(=O)O)=NN2c2ccc(S(N)(=O)=O)cc2)cc1 (centres unmarked) [Example 34, 1-(4-aminosulphonylphenyl)-4,5-dihydro-5-(4-methylphenyl)-1H-pyrazole-3-carboxylic acid]

melting point: 155 to 160 °C
SMILES: COC(=O)C1=NN(c2ccc(S(C)(=O)=O)cc2)C(c2ccc(C)cc2)C1 (centres unmarked) [Example 39, methyl 4,5-dihydro-5-(4-methylphenyl)-1-(4-methylsulphonylphenyl)-1H-pyrazole-3-carboxylate]

melting point: 210 to 215 °C
SMILES: Cc1ccc(C2CC(C(N)=O)=NN2c2ccc(S(N)(=O)=O)cc2)cc1 (centres unmarked) [Example 41, 1-(4-aminosulphonylphenyl)-4,5-dihydro-5-(4-methylphenyl)-1H-pyrazole-3-carboxamide]

melting point: 128 to 132 °C
SMILES: Cc1ccc(C2CC(C(N)=O)=NN2c2ccc(S(C)(=O)=O)cc2)cc1 (centres unmarked) [Example 42, 4,5-dihydro-5-(4-methylphenyl)-1-(4-methylsulphonylphenyl)-1H-pyrazole-3-carboxamide]

melting point: 162 to 164 °C
SMILES: Cc1ccc(C2CC(C#N)=NN2c2ccc(S(C)(=O)=O)cc2)cc1 (centres unmarked) [Example 43, 3-cyano-4,5-dihydro-5-(4-methylphenyl)-1-(4-methylsulphonylphenyl)-1H-pyrazole]

melting point: 172 to 174 °C
SMILES: CC(=O)NS(=O)(=O)c1ccc(N2N=C(C(F)(F)F)CC2c2ccc(F)cc2F)cc1 (centres unmarked) [Example 64, 1-(4-acetylaminosulphonylphenyl)-5-(2,4-difluorophenyl)-4,5-dihydro-3-trifluoromethyl-1H-pyrazole]

From patent publication USRE38963E1, “Pyrazoline derivatives, their preparation and application as medicaments” (Laboratorios del Dr. Esteve, priority 1998, dated 2006)
